Data reported in PubChem BioAssay (NCI).
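How tested: cells in 96-well plates exposed to compound for 48 hours at five concentrations. The concentration for 50% growth inhibition is given as GI50. TGI: concentration producing complete growth inhibition.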

Columns and labels:
Test in all cases: NCI tumour cell line growth inhibition, 48 h
[1] = test system: SNB-19 CNS
[2] = test system: SR leukemia
[3] = test system: OVCAR-4 ovarian
[4] = test system: RXF 393 renal
[5] = test system: MDA-MB-435
[6] = test system: SK-OV-3 ovarian
[7] = test system: COLO 205 colon
[8] = test system: A549 NSCLC
[9] = test system: LOX IMVI melanoma
[10] = test system: OVCAR-8 ovarian
[11] = test system: SF-268 CNS
[12] = test system: NCI-H460 lung
[13] = test system: TK-10 renal
[14] = test system: CCRF-CEM leukemia
[15] = test system: U251 CNS
[16] = test system: HCT-15 colon
[17] = test system: SF-295 CNS
[18] = test system: BT-549 breast
[19] = test system: CAKI-1 renal
[20] = test system: HOP-62 NSCLC
[21] = test system: NCI-H522 lung
[22] = test system: MOLT-4 leukemia
[23] = test system: PC-3 prostate
[24] = test system: SNB-75 CNS
[25] = test system: HCC-2998 colon
[26] = test system: MCF7 breast
[27] = test system: DU-145 prostate
[28] = test system: EKVX NSCLC
[29] = test system: A498 renal
[30] = test system: OVCAR-3 ovarian
[31] = test system: MDA-MB-231 breast
[32] = test system: T-47D breast
[33] = test system: SK-MEL-28 melanoma
[34] = test system: RPMI-8226 leukemia
[35] = test system: SK-MEL-2 melanoma
[36] = test system: M14 melanoma
[37] = test system: KM12 colon
[38] = test system: HS 578T breast
[39] = test system: 786-0 renal
[40] = test system: SK-MEL-5 melanoma
[41] = test system: IGROV1 ovarian
[42] = test system: HT29 colon
[43] = test system: MALME-3M melanoma
[44] = test system: UACC-257 melanoma
[45] = test system: UACC-62 melanoma
[46] = test system: K-562 leukemia
[47] = test system: HOP-92 NSCLC
[48] = test system: NCI-H226 lung
[49] = test system: HCT-116 colon
[50] = test system: SN12C renal
[51] = test system: OVCAR-5 ovarian
[52] = test system: UO-31 renal
[53] = test system: SW-620 colon
[54] = test system: ACHN renal
[55] = test system: NCI/ADR-RES ovarian
[56] = test system: SF-539 CNS
[57] = test system: NCI-H23 lung

## CCC(=O)OCC1OC(n2cnc3c(=S)nc(N)[nH]c32)C(OC(=O)CC)C1OC(=O)CC (centres undefined)
[1]
  GI50: 80.9 µM
  TGI: > 100 µM
[2]
  GI50: 0.828 µM
  TGI: > 100 µM
[3]
  GI50: 4.95 µM
  TGI: 81.3 µM
[4]
  GI50: 6.06 µM
  TGI: > 100 µM
[5]
  GI50: 4.73 µM
  TGI: > 100 µM
[6]
  GI50: 2.36 µM
  TGI: 14.5 µM
[7]
  GI50: 3.57 µM
  TGI: 18.4 µM
[8]
  GI50: 71.8 µM
  TGI: > 100 µM
[9]
  GI50: 2.17 µM
  TGI: > 100 µM
[10]
  GI50: 7.1 µM
  TGI: > 100 µM
[11]
  GI50: 3.95 µM
  TGI: > 100 µM
[12]
  GI50: 6.62 µM
  TGI: > 100 µM
[13]
  GI50: 3.63 µM
  TGI: > 100 µM
[14]
  GI50: 2.12 µM
  TGI: 28.2 µM
[15]
  GI50: 21.5 µM
  TGI: > 100 µM
[16]
  GI50: 9.39 µM
  TGI: > 100 µM
[17]
  GI50: 5.27 µM
  TGI: > 100 µM
[18]
  GI50: 5.42 µM
  TGI: > 100 µM
[19]
  GI50: 3.52 µM
  TGI: > 100 µM
[20]
  GI50: 2.71 µM
  TGI: 67.3 µM
[21]
  GI50: 2.89 µM
  TGI: 18.6 µM
[22]
  GI50: 5.31 µM
  TGI: > 100 µM
[23]
  GI50: 5.2 µM
  TGI: > 100 µM
[24]
  GI50: 3 µM
  TGI: 88.9 µM
[25]
  GI50: 15.2 µM
  TGI: 73.1 µM
[26]
  GI50: 3.57 µM
  TGI: 41.7 µM
[27]
  GI50: 2.51 µM
  TGI: 47.7 µM
[28]
  GI50: 10.7 µM
  TGI: > 100 µM
[29]
  GI50: 15.6 µM
  TGI: > 100 µM
[30]
  GI50: 3.03 µM
  TGI: 17.7 µM
[31]
  GI50: 5.44 µM
  TGI: > 100 µM
[32]
  GI50: 3.17 µM
  TGI: 43.8 µM
[33]
  GI50: 37.5 µM
  TGI: > 100 µM
[34]
  GI50: 3.79 µM
  TGI: 67.2 µM
[35]
  GI50: 2.89 µM
  TGI: 46.4 µM
[36]
  GI50: 2.33 µM
  TGI: 24.6 µM
[37]
  GI50: 6.06 µM
  TGI: 44.4 µM
[38]
  GI50: 23.8 µM
  TGI: > 100 µM
[39]
  GI50: 8.09 µM
  TGI: > 100 µM
[40]
  GI50: 13.9 µM
  TGI: 34 µM
[41]
  GI50: 7.49 µM
  TGI: 44.5 µM
[42]
  GI50: 14.7 µM
  TGI: > 100 µM
[43]
  GI50: 2.45 µM
  TGI: > 100 µM
[44]
  GI50: 35.4 µM
  TGI: > 100 µM
[45]
  GI50: 2.29 µM
  TGI: 14.4 µM
[46]
  GI50: 6.69 µM
  TGI: > 100 µM
[47]
  GI50: 0.892 µM
  TGI: 20.9 µM
[48]
  GI50: 2.62 µM
  TGI: > 100 µM
[49]
  GI50: 4.25 µM
  TGI: > 100 µM
[50]
  GI50: 12.4 µM
  TGI: > 100 µM
[51]
  GI50: 9.15 µM
  TGI: > 100 µM
[52]
  GI50: 1.97 µM
  TGI: 54.2 µM
[53]
  GI50: 16.3 µM
  TGI: > 100 µM
[54]
  GI50: 5.28 µM
  TGI: 93.1 µM
[55]
  GI50: 14.8 µM
  TGI: > 100 µM
[56]
  GI50: 4.88 µM
  TGI: 52.1 µM
[57]
  GI50: 9.73 µM
  TGI: > 100 µM

## Nc1nc(SCc2ccccc2)nc2[nH]ncc12
[1]
  GI50: 19.8 µM
  TGI: 42.4 µM
[2]
  GI50: 18 µM
  TGI: 51.1 µM
[3]
  GI50: 12.2 µM
  TGI: 37.1 µM
[4]
  GI50: 3.62 µM
  TGI: 11.5 µM
[5]
  GI50: 15.8 µM
  TGI: 29.9 µM
[6]
  GI50: 20 µM
  TGI: 39.1 µM
[7]
  GI50: 17.1 µM
  TGI: 53.6 µM
[8]
  GI50: 13.6 µM
  TGI: 29.1 µM
[9]
  GI50: 20.8 µM
  TGI: 58.2 µM
[10]
  GI50: 25.9 µM
  TGI: > 100 µM
[11]
  GI50: 20.5 µM
  TGI: 69.2 µM
[12]
  GI50: 12.3 µM
  TGI: 29.4 µM
[13]
  GI50: 10 µM
  TGI: 21.9 µM
[15]
  GI50: 14.9 µM
  TGI: 33.6 µM
[16]
  GI50: 20.4 µM
  TGI: > 100 µM
[17]
  GI50: 14.8 µM
  TGI: 29 µM
[18]
  GI50: 17.3 µM
  TGI: 35.1 µM
[19]
  GI50: 15.2 µM
  TGI: 28.8 µM
[20]
  GI50: 18.7 µM
  TGI: 33.4 µM
[21]
  GI50: 17.9 µM
  TGI: 46 µM
[22]
  GI50: 25.7 µM
  TGI: > 100 µM
[23]
  GI50: 13.7 µM
  TGI: 28.7 µM
[25]
  GI50: 19.6 µM
  TGI: 34.4 µM
[26]
  GI50: 11.8 µM
  TGI: 26.6 µM
[27]
  GI50: 21.2 µM
  TGI: 55.4 µM
[28]
  GI50: 16.1 µM
  TGI: 35.8 µM
[29]
  GI50: 10 µM
  TGI: 22.2 µM
[30]
  GI50: 12.6 µM
  TGI: 25.7 µM
[31]
  GI50: 16.4 µM
  TGI: 31.7 µM
[32]
  GI50: 4.15 µM
  TGI: 15.6 µM
[33]
  GI50: 17.1 µM
  TGI: 35.9 µM
[34]
  GI50: 7.76 µM
  TGI: 46 µM
[35]
  GI50: 20.7 µM
  TGI: 48.9 µM
[36]
  GI50: 19.4 µM
  TGI: 34.8 µM
[37]
  GI50: 14.1 µM
  TGI: 28.4 µM
[38]
  GI50: 14.3 µM
  TGI: 34.5 µM
[39]
  GI50: 18.7 µM
  TGI: 36 µM
[40]
  GI50: 12 µM
  TGI: 25.1 µM
[41]
  GI50: 19.4 µM
  TGI: 41.8 µM
[42]
  GI50: 17.1 µM
  TGI: 49.3 µM
[43]
  GI50: 11.7 µM
  TGI: 24.3 µM
[44]
  GI50: 14.6 µM
  TGI: 28.1 µM
[45]
  GI50: 14.4 µM
  TGI: 27.9 µM
[46]
  GI50: 14.3 µM
  TGI: > 100 µM
[47]
  GI50: 2.54 µM
  TGI: 11.7 µM
[48]
  GI50: 13.4 µM
  TGI: 27.4 µM
[49]
  GI50: 13.2 µM
  TGI: 26.3 µM
[50]
  GI50: 16.9 µM
  TGI: 31.3 µM
[51]
  GI50: 17.6 µM
  TGI: 31.7 µM
[52]
  GI50: 18 µM
  TGI: 38.4 µM
[53]
  GI50: 17.9 µM
  TGI: 37.6 µM
[54]
  GI50: 15.5 µM
  TGI: 31.6 µM
[55]
  GI50: 12.3 µM
  TGI: 27.8 µM
[56]
  GI50: 19 µM
  TGI: 41.7 µM
[57]
  GI50: 12.6 µM
  TGI: 25.8 µM
